Reference: the supplement of paper PMC10627819

Legend:
S. pneumoniae D39V [1] = assay: Bliss interaction score (quartile over a dose matrix) (fitness difference); higher = more antagonism (negative = synergy)
Outline: (§1)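 Growth in each well was taken as OD595 at entry into stationary phase. Dividing by the plate's robust no-drug mean and capping at 1 gave fitness, and single-drug fitness was inferred from the combination data. The Bliss score, observed minus product-expected fitness, is summarised by quartiles over technical, biological and donor/recipient replicates.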

B. subtilis 168 = assay: as above
Outline: as §1

S. aureus DSM 20231 = assay: as above
Outline: as §1

S. aureus Newman [2] = assay: as above
Outline: as §1

S. pneumoniae D39V [3] = assay: fitness (endpoint OD595 vs no drug) (fraction); higher = more growth
Outline: (§2)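 Fitness compares growth at the stationary-phase transition with the robust mean of no-drug control wells, as a ratio of optical densities. The ratio is capped at 1. Wells of 384-well plates held 30 µl, or 55 µl for S. pneumoniae, inoculated at OD595 0.01. Readings at OD595 every 30 min for 14 h at 37 °C were corrected against the first reading.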

S. aureus Newman [4] = assay: as above
Outline: as §2
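For Bliss interaction score (quartile over a dose matrix) in this document: first quartile when negative (synergy) and third quartile when positive (antagonism).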

O=C(O)c1cn(C2CC2)c2cc(N3CCNCC3)c(F)cc2c1=O [Ciprofloxacin] + CN[C@H](CC(C)C)C(=O)N[C@H]1C(=O)N[C@@H](CC(N)=O)C(=O)N[C@H]2C(=O)N[C@H]3C(=O)N[C@H](C(=O)N[C@H](C(=O)O)c4cc(O)cc(O)c4-c4cc3ccc4O)[C@H](O)c3ccc(c(Cl)c3)Oc3cc2cc(c3O[C@@H]2O[C@H](CO)[C@@H](O)[C@H](O)[C@H]2O[C@H]2C[C@](C)(N)[C@H](O)[C@H](C)O2)Oc2ccc(cc2Cl)[C@H]1O [Vancomycin]
Settings	Bliss interaction score
B. subtilis 168	-0.0465
S. aureus DSM 20231	0.0479
S. aureus Newman [2]	-0.0715
S. pneumoniae D39V [1]	-0.106

Settings	fitness
S. aureus Newman [4], first compound 0.0375 µg/mL, partner 0.1875 µg/mL	0.75
S. aureus Newman [4], first compound 0.0375 µg/mL, partner 0.375 µg/mL	0.77
S. aureus Newman [4], first compound 0.0375 µg/mL, partner 0.75 µg/mL	0.725
S. aureus Newman [4], first compound 0.075 µg/mL, partner 0.1875 µg/mL	0.718
S. aureus Newman [4], first compound 0.075 µg/mL, partner 0.375 µg/mL	0.682
S. aureus Newman [4], first compound 0.075 µg/mL, partner 0.75 µg/mL	0.663
S. aureus Newman [4], first compound 0.15 µg/mL, partner 0.1875 µg/mL	0.07
S. aureus Newman [4], first compound 0.15 µg/mL, partner 0.375 µg/mL	0.0567
S. aureus Newman [4], first compound 0.15 µg/mL, partner 0.75 µg/mL	0.0797
S. pneumoniae D39V [3], first compound 0.125 µg/mL, partner 0.03125 µg/mL	0.943
S. pneumoniae D39V [3], first compound 0.125 µg/mL, partner 0.0625 µg/mL	0.881
S. pneumoniae D39V [3], first compound 0.125 µg/mL, partner 0.125 µg/mL	0.885
S. pneumoniae D39V [3], first compound 0.125 µg/mL, partner 0.25 µg/mL	0.0814
S. pneumoniae D39V [3], first compound 0.125 µg/mL, partner 0.5 µg/mL	0.034
S. pneumoniae D39V [3], first compound 0.25 µg/mL, partner 0.03125 µg/mL	0.845
S. pneumoniae D39V [3], first compound 0.25 µg/mL, partner 0.0625 µg/mL	0.826
S. pneumoniae D39V [3], first compound 0.25 µg/mL, partner 0.125 µg/mL	0.82
S. pneumoniae D39V [3], first compound 0.5 µg/mL, partner 0.03125 µg/mL	0.58
S. pneumoniae D39V [3], first compound 0.5 µg/mL, partner 0.0625 µg/mL	0.585
S. pneumoniae D39V [3], first compound 0.5 µg/mL, partner 0.25 µg/mL	0.158
S. pneumoniae D39V [3], first compound 0.5 µg/mL, partner 0.5 µg/mL	0.0552

S. pneumoniae D39V [3], first compound 0.25 µg/mL, one replicate
Settings	fitness
partner 0.25 µg/mL	0.0819
partner 0.5 µg/mL	0.0016

O=C(O)c1cn(C2CC2)c2cc(N3CCNCC3)c(F)cc2c1=O [Ciprofloxacin] + Cn1nnc(-c2ccc(-c3ccc(N4C[C@H](CO)OC4=O)cc3F)cn2)n1 [Tedizolid]
Settings	Bliss interaction score
B. subtilis 168	0.26
S. aureus DSM 20231	0.0744
S. aureus Newman [2]	0.0978
S. pneumoniae D39V [1]	-0.0691

fitness
Settings	partner 0.03125 µg/mL	partner 0.0625 µg/mL	partner 0.125 µg/mL	partner 0.25 µg/mL	partner 0.5 µg/mL
S. aureus Newman [4], first compound 0.0375 µg/mL	–	–	0.633	–	–
S. aureus Newman [4], first compound 0.075 µg/mL	–	0.56	0.592	0.423	–
S. aureus Newman [4], first compound 0.15 µg/mL	–	–	–	0.13	–
S. pneumoniae D39V [3], first compound 0.125 µg/mL	0.935	0.95	0.771	0.331	0.102
S. pneumoniae D39V [3], first compound 0.25 µg/mL	0.913	0.945	0.703	–	–
S. pneumoniae D39V [3], first compound 0.5 µg/mL	0.828	0.889	–	0.292	0.0949

S. pneumoniae D39V [3], first compound 0.25 µg/mL, one replicate
Settings	fitness
partner 0.25 µg/mL	0.257
partner 0.5 µg/mL	0.0574

COc1cccc2c1C(=O)c1c(O)c3c(c(O)c1C2=O)C[C@@](O)(C(=O)CO)C[C@@H]3O[C@H]1C[C@H](N)[C@H](O)[C@H](C)O1 [Doxorubicin] + C/C(=C\C(=O)OCCCCCCCCC(=O)O)C[C@@H]1OC[C@H](C[C@@H]2O[C@H]2[C@@H](C)[C@H](C)O)[C@@H](O)[C@H]1O [Pseudomonic acid]
Settings	Bliss interaction score
B. subtilis 168	0.12
S. aureus DSM 20231	-0.0156
S. aureus Newman [2]	-0.0226
S. pneumoniae D39V [1]	-0.079

fitness, S. pneumoniae D39V [3]
Settings	first compound 0.25 µg/mL	first compound 0.5 µg/mL	first compound 1 µg/mL
partner 0.03 µg/mL	0.916	0.893	0.887
partner 0.06 µg/mL	0.73	0.756	0.681
partner 0.12 µg/mL	0.484	0.435	0.381

fitness, S. aureus Newman [4], one replicate
Settings	first compound 0.625 µg/mL	first compound 1.25 µg/mL	first compound 2.5 µg/mL
partner 0.0313 µg/mL	0.0603	0.0435	0.0003
partner 0.0625 µg/mL	0.0314	0.0203	0.0075
partner 0.125 µg/mL	0.0395	0.0395	0.0206

C[C@@H]1O[C@@H]1P(=O)(O)O [Fosfomycin] + C/C(=C\C(=O)OCCCCCCCCC(=O)O)C[C@@H]1OC[C@H](C[C@@H]2O[C@H]2[C@@H](C)[C@H](C)O)[C@@H](O)[C@H]1O [Pseudomonic acid]
Settings	Bliss interaction score
B. subtilis 168	0.0483
S. aureus DSM 20231	0.0164
S. aureus Newman [2]	-0.0091
S. pneumoniae D39V [1]	-0.0714

fitness, S. pneumoniae D39V [3]
Settings	first compound 1.25 µg/mL	first compound 2.5 µg/mL	first compound 5 µg/mL
partner 0.03 µg/mL	0.928	0.937	0.868
partner 0.06 µg/mL	0.803	0.882	–
partner 0.12 µg/mL	0.531	0.454	0.201

fitness, S. aureus Newman [4], one replicate
Settings	first compound 0.781 µg/mL	first compound 1.562 µg/mL	first compound 3.124 µg/mL
partner 0.0313 µg/mL	0.0359	0.0031	0.0112
partner 0.0625 µg/mL	0.0247	0.0394	0.0147
partner 0.125 µg/mL	0.0275	0.0351	0.0342
